# Measured values from patent publication US11981658B2, “Substituted aminopyridine compounds as EGFR inhibitors” (YUHAN CORPORATION, priority 2021, dated 2024).
# Where two headings read alike, the source gives them in different places.
# Legend:
# EGFR Del19/C797S = EGFR Del19/C797S (Homo sapiens, UniProt P00533, C797S/DEL746-750); test: Biochemical EGFR kinase inhibition assay (Lance Ultra TR-FRET), double mutant del19/C797S
# Outline: (§1)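 Kinase activity is measured by TR-FRET phosphopeptide detection. Compounds span 0.003 μM to 10 μM; the 1 h reaction at room temperature is quenched with EDTA, then labelled antibody (2 nM) is incubated 60 min before reading.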
# EGFR L858R/C797S = EGFR L858R/C797S (Homo sapiens, UniProt P00533, C797S/L858R); test: Biochemical EGFR kinase inhibition assay (Lance Ultra TR-FRET), double mutant L858R/C797S
# Outline: as §1
# EGFR Del19/T790M/C797S = EGFR Del19/T790M/C797S (Homo sapiens, UniProt P00533, C797S/DEL746-750/T790M); test: Biochemical EGFR kinase inhibition assay (Lance Ultra TR-FRET), triple mutant del19/T790M/C797S
# Outline: as §1
# EGFR wildtype (WT) = EGFR wildtype (WT) (Homo sapiens, UniProt P00533); test: Biochemical EGFR kinase inhibition assay (Lance Ultra TR-FRET), wildtype
# Outline: as §1
# EGFR L858R/T790M/C797S = EGFR L858R/T790M/C797S (Homo sapiens, UniProt P00533, C797S/L858R/T790M); test: Biochemical EGFR kinase inhibition assay (Lance Ultra TR-FRET), triple mutant L858R/T790M/C797S
# Outline: as §1
# [1] = ATP at Km, read-out: IC50 Del19/C797S (nM), Km ATP
# [2] = IC50 Del19/C797S (nM), 100 μM ATP
# [3] = ATP at Km, read-out: IC50 L858R/C797S (nM), Km ATP
# [4] = IC50 L858R/C797S (nM), 100 μM ATP
# [5] = ATP at Km, read-out: IC50 Del19/T790M/C797S (nM), Km ATP
# [6] = IC50 Del19/T790M/C797S (nM), 100 μM ATP
# [7] = ATP at Km, read-out: IC50 WT (nM), Km ATP
# [8] = ATP at Km, read-out: IC50 L858R/T790M/C797S (nM), Km ATP
# [9] = IC50 L858R/T790M/C797S (nM), 100 μM ATP
# Sequence of EGFR L858R/C797S (P00533 25-1210 C797S/L858R): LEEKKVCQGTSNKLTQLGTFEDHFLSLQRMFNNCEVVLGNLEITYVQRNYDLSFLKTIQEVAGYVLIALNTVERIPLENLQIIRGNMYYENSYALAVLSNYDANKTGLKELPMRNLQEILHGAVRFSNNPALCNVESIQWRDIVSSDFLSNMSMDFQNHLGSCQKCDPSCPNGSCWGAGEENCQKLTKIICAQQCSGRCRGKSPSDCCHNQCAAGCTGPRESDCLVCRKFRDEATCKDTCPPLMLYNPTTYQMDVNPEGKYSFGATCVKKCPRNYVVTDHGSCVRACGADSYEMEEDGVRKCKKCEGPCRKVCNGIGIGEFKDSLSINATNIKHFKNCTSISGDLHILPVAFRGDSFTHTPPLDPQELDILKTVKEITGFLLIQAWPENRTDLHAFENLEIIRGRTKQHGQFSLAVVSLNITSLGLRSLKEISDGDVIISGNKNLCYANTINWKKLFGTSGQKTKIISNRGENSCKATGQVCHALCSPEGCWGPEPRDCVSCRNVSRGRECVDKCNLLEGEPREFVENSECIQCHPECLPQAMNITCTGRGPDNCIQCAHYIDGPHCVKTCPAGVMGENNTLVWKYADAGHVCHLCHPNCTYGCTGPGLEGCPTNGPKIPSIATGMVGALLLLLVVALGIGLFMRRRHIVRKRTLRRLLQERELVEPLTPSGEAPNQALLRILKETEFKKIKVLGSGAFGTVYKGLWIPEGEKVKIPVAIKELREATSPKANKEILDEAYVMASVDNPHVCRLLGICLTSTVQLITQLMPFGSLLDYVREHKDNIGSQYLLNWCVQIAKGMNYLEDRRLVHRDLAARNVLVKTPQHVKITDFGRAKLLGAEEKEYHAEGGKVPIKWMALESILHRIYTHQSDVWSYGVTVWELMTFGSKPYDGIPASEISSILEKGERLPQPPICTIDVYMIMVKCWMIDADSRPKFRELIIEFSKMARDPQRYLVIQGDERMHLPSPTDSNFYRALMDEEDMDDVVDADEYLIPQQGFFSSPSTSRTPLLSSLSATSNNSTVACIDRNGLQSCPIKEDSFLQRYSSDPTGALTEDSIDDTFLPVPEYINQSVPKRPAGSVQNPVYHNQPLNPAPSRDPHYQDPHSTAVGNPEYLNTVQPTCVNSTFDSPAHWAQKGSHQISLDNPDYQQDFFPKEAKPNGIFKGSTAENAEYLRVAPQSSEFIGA
# Sequence of EGFR Del19/T790M/C797S (P00533 with tags, fused parts or gaps DEL746-750/T790M/C797S): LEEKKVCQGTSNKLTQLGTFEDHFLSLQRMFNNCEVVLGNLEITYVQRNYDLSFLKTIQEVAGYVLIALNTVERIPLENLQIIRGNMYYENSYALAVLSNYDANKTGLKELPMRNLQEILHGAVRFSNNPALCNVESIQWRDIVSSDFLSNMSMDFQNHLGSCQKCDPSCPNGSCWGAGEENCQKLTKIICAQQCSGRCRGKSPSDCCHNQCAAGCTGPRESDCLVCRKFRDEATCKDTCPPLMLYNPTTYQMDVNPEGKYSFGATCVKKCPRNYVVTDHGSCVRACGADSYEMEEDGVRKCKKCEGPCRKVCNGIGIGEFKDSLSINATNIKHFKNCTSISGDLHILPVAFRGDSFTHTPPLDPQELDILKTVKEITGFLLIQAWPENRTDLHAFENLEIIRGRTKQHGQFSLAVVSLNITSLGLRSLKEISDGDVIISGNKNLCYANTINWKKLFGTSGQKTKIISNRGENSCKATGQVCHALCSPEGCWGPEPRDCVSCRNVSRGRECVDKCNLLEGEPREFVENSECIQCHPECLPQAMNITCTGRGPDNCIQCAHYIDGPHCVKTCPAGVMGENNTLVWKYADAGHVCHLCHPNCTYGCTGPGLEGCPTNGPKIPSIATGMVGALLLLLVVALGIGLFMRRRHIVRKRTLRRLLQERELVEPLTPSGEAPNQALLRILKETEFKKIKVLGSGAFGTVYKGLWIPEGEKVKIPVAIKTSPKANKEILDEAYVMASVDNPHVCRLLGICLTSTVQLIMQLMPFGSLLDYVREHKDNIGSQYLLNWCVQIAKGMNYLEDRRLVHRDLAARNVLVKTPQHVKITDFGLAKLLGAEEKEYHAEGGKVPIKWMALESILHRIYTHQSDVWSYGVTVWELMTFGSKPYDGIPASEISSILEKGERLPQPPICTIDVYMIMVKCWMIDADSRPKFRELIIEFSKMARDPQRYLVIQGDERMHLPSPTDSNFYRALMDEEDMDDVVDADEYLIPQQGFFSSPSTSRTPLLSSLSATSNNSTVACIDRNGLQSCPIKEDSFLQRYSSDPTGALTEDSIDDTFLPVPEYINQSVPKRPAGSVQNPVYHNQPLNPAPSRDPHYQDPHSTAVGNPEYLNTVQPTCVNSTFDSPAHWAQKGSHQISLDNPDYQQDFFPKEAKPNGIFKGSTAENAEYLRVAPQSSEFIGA
# Sequence of EGFR Del19/C797S (P00533 with tags, fused parts or gaps DEL746-750/C797S): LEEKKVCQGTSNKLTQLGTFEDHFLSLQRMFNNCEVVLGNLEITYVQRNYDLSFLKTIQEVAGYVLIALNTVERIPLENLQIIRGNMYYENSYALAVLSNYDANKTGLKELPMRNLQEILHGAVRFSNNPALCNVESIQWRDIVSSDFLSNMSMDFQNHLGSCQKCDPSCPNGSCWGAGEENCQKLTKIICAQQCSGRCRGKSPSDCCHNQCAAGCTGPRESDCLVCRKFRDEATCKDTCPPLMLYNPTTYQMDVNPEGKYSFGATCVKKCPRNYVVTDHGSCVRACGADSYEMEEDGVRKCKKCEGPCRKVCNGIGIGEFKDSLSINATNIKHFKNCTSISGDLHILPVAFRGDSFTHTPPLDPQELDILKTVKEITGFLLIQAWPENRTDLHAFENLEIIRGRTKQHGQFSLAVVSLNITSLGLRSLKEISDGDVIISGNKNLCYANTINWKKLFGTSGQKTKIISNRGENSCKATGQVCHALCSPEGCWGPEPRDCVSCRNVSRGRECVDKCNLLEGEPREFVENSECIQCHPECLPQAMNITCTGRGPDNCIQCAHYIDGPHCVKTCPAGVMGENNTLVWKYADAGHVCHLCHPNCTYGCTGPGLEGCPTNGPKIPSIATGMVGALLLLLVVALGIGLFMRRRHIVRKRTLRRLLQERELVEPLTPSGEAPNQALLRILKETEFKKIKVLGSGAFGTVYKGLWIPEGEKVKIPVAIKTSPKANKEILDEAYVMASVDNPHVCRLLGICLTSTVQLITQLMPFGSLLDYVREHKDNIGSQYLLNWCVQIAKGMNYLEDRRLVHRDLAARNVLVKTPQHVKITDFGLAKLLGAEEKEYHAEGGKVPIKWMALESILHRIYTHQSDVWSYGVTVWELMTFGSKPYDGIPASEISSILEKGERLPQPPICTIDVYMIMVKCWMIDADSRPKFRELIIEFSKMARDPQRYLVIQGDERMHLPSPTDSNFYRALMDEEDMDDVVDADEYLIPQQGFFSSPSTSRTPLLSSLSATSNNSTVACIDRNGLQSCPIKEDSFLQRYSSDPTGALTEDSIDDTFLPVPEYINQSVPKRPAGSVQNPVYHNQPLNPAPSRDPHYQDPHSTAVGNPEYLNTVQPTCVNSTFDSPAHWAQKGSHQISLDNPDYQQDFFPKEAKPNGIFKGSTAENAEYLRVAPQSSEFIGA
# Sequence of EGFR L858R/T790M/C797S (P00533 25-1210 T790M/C797S/L858R): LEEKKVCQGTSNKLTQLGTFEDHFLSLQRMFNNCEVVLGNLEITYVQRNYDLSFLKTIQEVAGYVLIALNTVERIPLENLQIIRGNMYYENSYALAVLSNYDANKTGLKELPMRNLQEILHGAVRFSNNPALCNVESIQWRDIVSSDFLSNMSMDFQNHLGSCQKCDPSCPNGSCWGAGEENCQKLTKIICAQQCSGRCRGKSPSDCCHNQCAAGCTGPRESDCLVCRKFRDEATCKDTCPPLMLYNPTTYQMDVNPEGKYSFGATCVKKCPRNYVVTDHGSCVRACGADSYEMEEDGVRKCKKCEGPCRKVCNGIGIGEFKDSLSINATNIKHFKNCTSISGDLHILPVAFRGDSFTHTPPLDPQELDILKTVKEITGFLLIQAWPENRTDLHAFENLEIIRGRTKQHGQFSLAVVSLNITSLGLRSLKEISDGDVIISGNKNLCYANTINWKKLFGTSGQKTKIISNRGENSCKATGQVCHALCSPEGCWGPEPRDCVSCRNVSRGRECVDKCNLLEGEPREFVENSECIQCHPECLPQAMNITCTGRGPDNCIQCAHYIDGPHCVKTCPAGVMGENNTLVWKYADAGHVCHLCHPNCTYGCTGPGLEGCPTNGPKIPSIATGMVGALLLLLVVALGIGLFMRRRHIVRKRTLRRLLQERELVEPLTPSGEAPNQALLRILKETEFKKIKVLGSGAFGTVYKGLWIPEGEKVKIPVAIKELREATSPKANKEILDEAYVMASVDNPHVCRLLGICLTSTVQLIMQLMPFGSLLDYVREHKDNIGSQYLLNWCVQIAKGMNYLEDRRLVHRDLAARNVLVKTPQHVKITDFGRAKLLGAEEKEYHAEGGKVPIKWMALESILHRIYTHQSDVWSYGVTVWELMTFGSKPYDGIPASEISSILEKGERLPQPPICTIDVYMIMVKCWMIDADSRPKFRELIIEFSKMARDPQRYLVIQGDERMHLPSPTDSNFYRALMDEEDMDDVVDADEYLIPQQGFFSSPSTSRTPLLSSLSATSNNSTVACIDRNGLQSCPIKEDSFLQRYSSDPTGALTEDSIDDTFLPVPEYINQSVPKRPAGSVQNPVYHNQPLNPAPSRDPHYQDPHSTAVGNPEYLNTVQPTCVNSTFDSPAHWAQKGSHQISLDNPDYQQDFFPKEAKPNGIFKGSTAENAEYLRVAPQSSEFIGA
SMILES,IC50 (EGFR Del19/C797S; [1]),IC50 (EGFR Del19/C797S; [2]),IC50 (EGFR L858R/C797S; [3]),IC50 (EGFR L858R/C797S; [4]),IC50 (EGFR Del19/T790M/C797S; [5]),IC50 (EGFR Del19/T790M/C797S; [6]),IC50 (EGFR wildtype (WT); [7]),"IC50 (EGFR wildtype (WT); IC50 WT (nM), 100 μM ATP)",IC50 (EGFR L858R/T790M/C797S; [8]),IC50 (EGFR L858R/T790M/C797S; [9]),"IC50 (EGFR Del19/C797S; read-out: IC50 Del19/C797S (nM), 100 μM ATP)","IC50 (EGFR L858R/C797S; read-out: IC50 L858R/C797S (nM), 100 μM ATP)","IC50 (EGFR Del19/T790M/C797S; read-out: IC50 Del19/T790M/C797S (nM), 100 μM ATP)","IC50 (EGFR wildtype (WT); read-out: IC50 WT (nM), 100 μM ATP)","IC50 (EGFR L858R/T790M/C797S; read-out: IC50 L858R/T790M/C797S (nM), 100 μM ATP)"
"Cn1cc(C#Cc2cnc(Nc3ccnc(-c4cnn(S(=O)(=O)C5CC5)c4)n3)cc2N2CCC3(CCNC3)CC2)cn1 [Example 156, 2-(1-(Cyclopropylsulfonyl)-1H-pyrazol-4-yl)-N-(5-((1-methyl-1H-pyrazol-4-yl)ethynyl)-4-(2,8-diazaspiro[4.5]decan-8-yl)pyridin-2-yl)pyrimidin-4-amine]",0.3 nM,0.4 nM,1.2 nM,9 nM,0.1 nM,0.1 nM,2.6 nM,2100 nM,0.04 nM,0.1 nM,,,,,
"O=S(=O)(C1CC1)n1cc(-c2nccc(Nc3cc(N[C@H]4CC[C@@H](O)CC4)c(C#Cc4ccc(CN5CCOCC5)cc4)cn3)n2)cn1 [Example 157, (1s,4s)-4-((2-((2-(1-(Cyclopropylsulfonyl)-1H-pyrazol-4-yl)pyrimidin-4-yl)amino)-5-((4-(morpholinomethyl)phenyl)ethynyl)pyridin-4-yl)amino)cyclohexan-1-ol]",3.7 nM,10.6 nM,3.3 nM,40.8 nM,3.3 nM,3.6 nM,127 nM,> 10000 nM,1.7 nM,4.6 nM,,,,,
"C[C@]1(O)CC[C@@H](Nc2cc(Nc3ccnc(-c4cnn(S(=O)(=O)C5CC5)c4)n3)ncc2C#Cc2ccc(CN3CCOCC3)cc2)CC1 [Example 158, (1s,4s)-4-((2-((2-(1-(Cyclopropylsulfonyl)-1H-pyrazol-4-yl)pyrimidin-4-yl)amino)-5-((4-(morpholinomethyl)phenyl)ethynyl)pyridin-4-yl)amino)-1-methylcyclohexan-1-ol]",18.3 nM,,15.3 nM,,6.2 nM,,523 nM,,2.5 nM,,131 nM,809 nM,6.8 nM,> 10000 nM,8.4 nM
"O=S(=O)(C1CC1)n1cc(-c2nccc(Nc3cc(N[C@H]4CCC[C@@H](O)C4)c(C#Cc4ccc(CN5CCOCC5)cc4)cn3)n2)cn1 [Example 159, (1R,3S)-3-((2-((2-(1-(Cyclopropylsulfonyl)-1H-pyrazol-4-yl)pyrimidin-4-yl)amino)-5-((4-(morpholinomethyl)phenyl)ethynyl)pyridin-4-yl)amino)cyclohexan-1-ol]",7.7 nM,21.7 nM,7.4 nM,98.5 nM,8.3 nM,10.6 nM,85.5 nM,> 10000 nM,3.4 nM,9.6 nM,,,,,
"O=S(=O)(C1CC1)n1cc(-c2nccc(Nc3cc(N[C@@H]4CCC[C@H](O)C4)c(C#Cc4ccc(CN5CCOCC5)cc4)cn3)n2)cn1 [Example 160, (1S,3R)-3-((2-((2-(1-(Cyclopropylsulfonyl)-1H-pyrazol-4-yl)pyrimidin-4-yl)amino)-5-((4-(morpholinomethyl)phenyl)ethynyl)pyridin-4-yl)amino)cyclohexan-1-ol]",4.1 nM,10.1 nM,3.8 nM,65.6 nM,5.7 nM,7.3 nM,64.8 nM,> 10000 nM,2.5 nM,6.2 nM,,,,,
"O=S(=O)(C1CC1)n1cc(-c2nccc(Nc3cc(N[C@H]4CCC[C@H](O)C4)c(C#Cc4ccc(CN5CCOCC5)cc4)cn3)n2)cn1 [Example 161, (1 S,3S)-3-((2-((2-(1-(Cyclopropylsulfonyl)-1H-pyrazol-4-yl)pyrimidin-4-yl)amino)-5-((4-(morpholinomethyl)phenyl)ethynyl)pyridin-4-yl)amino)cyclohexan-1-ol]",25.5 nM,38.2 nM,21.6 nM,547 nM,5.5 nM,8.8 nM,650 nM,> 10000 nM,3.2 nM,10.6 nM,,,,,
